From ChEMBL document CHEMBL5131488, “Design and synthesis of pyrido[2,3-d]pyrimidine derivatives for a novel PAC1 receptor antagonist” (Eur J Med Chem, 2022) come the findings set out here.

Values after ≈ are worked out from the molar mass of the structure shown. Active and inactive are the calls of the source. The rule behind the calls is not given here.

Series [1] has as its target T1, Pituitary adenylate cyclase-activating polypeptide type I receptor (Homo sapiens, UniProt P41586). Kind of series: Antagonist activity at PAC-1 receptor (unknown origin) expressed in CHO cells assessed as inhibition of PACAP-induced CREB phosphorylation at 1 nM pretreated for 30 mins followed by PACAP stimulation for 30 mins by western blot analysis. Format: cell-based. To be noted: filed as antagonist, time 60.0 min. Background: A western blot detects proteins with antibodies after separation by electrophoresis.
Target sequence in this assay (P41586 21-468 limits assumed): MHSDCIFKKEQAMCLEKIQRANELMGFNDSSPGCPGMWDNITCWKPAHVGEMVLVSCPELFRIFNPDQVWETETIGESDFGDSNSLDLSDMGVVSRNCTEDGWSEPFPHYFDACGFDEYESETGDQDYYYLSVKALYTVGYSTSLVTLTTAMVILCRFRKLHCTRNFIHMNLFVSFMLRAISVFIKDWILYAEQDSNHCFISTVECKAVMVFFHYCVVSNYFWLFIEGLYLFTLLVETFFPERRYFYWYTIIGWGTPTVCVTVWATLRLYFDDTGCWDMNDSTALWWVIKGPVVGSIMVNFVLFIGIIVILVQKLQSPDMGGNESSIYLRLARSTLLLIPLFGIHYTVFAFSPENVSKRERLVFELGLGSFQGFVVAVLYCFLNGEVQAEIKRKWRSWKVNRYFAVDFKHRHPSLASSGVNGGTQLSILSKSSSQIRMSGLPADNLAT

In series [2] the test system is Mus musculus. Kind of series: Inhibition of PACAP-induced aversive behaviour in it dosed ddY mouse administered as single dose and measured for 30 mins. It is filed as functional, organism-based. The conditions noted are these: dose 10-100 pmol, DDE = dose-dependent effect.
The nature of series [3]: Half life in C57BL/6J mouse at 30 mg/kg, po measured up to 24 hrs by LC-MS/MS analysis. It is filed as ADME, organism-based. The conditions noted are these: in vivo.
Series [4] concerns Mus musculus. Put plainly: Antiallodynic activity in ddY mouse assessed as inhibition of PACAP-evoked mechanical allodynia at 10 to 100 pmol administered via IT as single dose and measured after 14 days. Format: functional, organism-based. The conditions noted are these: dose 10-100 pmol, time 14.0 day.
Series [5] can be described thus: Metabolic stability in mouse liver microsomes assessed as parent compound remaining in presence of NADPH at 0.5 uM measured after 10 mins by LC-MS/MS analysis. Format: ADME, Microsome. The conditions noted are these: read-out: Stability. For orientation: Liver microsomes are a subcellular fraction often used to study metabolism.
Series [6] can be described thus: Tmax in C57BL/6J mouse at 30 mg/kg, ip measured up to 24 hrs by LC-MS/MS analysis. It is filed as ADME, organism-based. The conditions noted are these: in vivo.
Series [7] in a line: Tmax in C57BL/6J mouse at 30 mg/kg, po measured up to 24 hrs by LC-MS/MS analysis. It is filed as ADME, organism-based. To be noted: in vivo.
A short description of series [8]: Cmax in C57BL/6J mouse at 30 mg/kg, ip measured up to 24 hrs by LC-MS/MS analysis. Format: ADME, organism-based. On the set-up: time < 24 hrs, dose 30 mg/kg, route ip. The conditions noted are these: in vivo.
Series [9] can be described thus: Metabolic stability in human liver microsomes assessed as parent compound remaining in presence of NADPH at 0.5 uM measured after 10 mins by LC-MS/MS analysis. Format: ADME, Microsome. The conditions noted are these: read-out: Stability.
Series [10] can be described thus: Permeability of the compound across apical to basolateral side in human Caco-2 cells at 25 uM incubated for 2 hrs by LC/MS/MS analysis. The conditions noted are these: read-out: permeability. Format: ADME, cell-based.
A short description of series [11]: Metabolic stability in mouse liver microsomes assessed as parent compound remaining in presence of NADPH at 0.5 uM measured after 60 mins by LC-MS/MS analysis. The conditions noted are these: read-out: Stability. It is filed as ADME, Microsome.
A short description of series [12]: Half life in C57BL/6J mouse at 30 mg/kg, ip measured up to 24 hrs by LC-MS/MS analysis. Format: ADME, organism-based. The conditions noted are these: in vivo.
Series [13] can be described thus: Plasma protein binding in human measured after 5 hrs by LC-MS/MS analysis. Format: ADME, cell-free. To be noted: read-out: PPB (converted).
Series [14] in a line: Metabolic stability in human liver microsomes assessed as parent compound remaining in presence of NADPH at 0.5 uM measured after 60 mins by LC-MS/MS analysis. It is filed as ADME, Microsome. To be noted: read-out: Stability.
The nature of series [15]: Aqueous solubility of the compound in phosphate buffered saline at 100 uM at pH 7.4 by HPLC analysis. It is filed as physicochemical.
A short description of series [16]: Plasma protein binding in mouse measured after 5 hrs by LC-MS/MS analysis. The conditions noted are these: read-out: PPB (converted). Format: ADME, cell-free.
Series [17] in a line: Cmax in C57BL/6J mouse at 30 mg/kg, po measured up to 24 hrs by LC-MS/MS analysis. Format: ADME, organism-based. On the set-up: dose 30 mg/kg, time < 24 hrs, route po. The conditions noted are these: in vivo.
Series [18] relates to Mus musculus. Kind of series: Antiallodynic activity in ddY mouse assessed as inhibition of SNL-induced mechanical allodynia at 30 mg/kg, ip administered once daily for 7 days and measured at 1 hr post-last dosage. It is filed as functional, organism-based. The conditions noted are these: time 7.0 day.
Series [19] addresses T1, Pituitary adenylate cyclase-activating polypeptide type I receptor. Put plainly: Antagonist activity at PAC-1 receptor (unknown origin) expressed in CHO cells assessed as inhibition of PACAP-induced increase in intracellular cAMP level pretreated for 30 mins followed by PACAP stimulation measured after 1 hr by cAMP-Glo assay. Format: cell-based. To be noted: for Activity: filed as antagonist, time 90.0 min, DDE = dose-dependent effect. In general terms: Cyclic AMP is a second messenger, typically raised through Gs and lowered through Gi signalling.

The subject of series [20] is Mus musculus. Kind of series: Antiallodynic activity in ddY mouse assessed as inhibition of spinal nerve ligation-evoked mechanical allodynia at 10 pmol administered via IT as single dose and measured after 2 to 4 hrs. It is filed as functional, organism-based. The conditions noted are these: time 2-4 hrs.
Series [21] has as its system Mus musculus. Kind of series: Antiallodynic activity in ddY mouse assessed as inhibition of spinal nerve ligation-evoked mechanical allodynia at 10 pmol administered via IT as single dose and measured after 3 hrs. Format: functional, organism-based.
The subject of series [22] is Mus musculus. Put plainly: Antiallodynic activity in ddY mouse assessed as inhibition of SNL-induced mechanical allodynia at 30 mg/kg, ip administered once daily for 7 days and measured for 3 days after termination of repetitive drug administration. Format: functional, organism-based. The conditions noted are these: time 7.0 day.

On to `CCCCc1cccc(C2CC(=O)Nc3nc(N)[nH]c(=O)c32)c1` (centres undefined), for which the outcome in series [1] was Active.
`CCCOc1ccc(C2CC(=O)Nc3nc(N)[nH]c(=O)c32)cc1OC` (centres undefined): the result in series [1] was Active.
On the same count and under the same terms, as for `C=CCOc1cccc(C2CC(=O)Nc3nc(N)[nH]c(=O)c32)c1` (centres undefined), the entry is “Active”.
Same read-out and setting: the entry for `CCOc1cc(C2CC(=O)Nc3nc(N)[nH]c(=O)c32)ccc1OC` (centres undefined) is “Active”; for `CCCOc1cc(C2CC(=O)Nc3nc(N)[nH]c(=O)c32)ccc1OC` (centres undefined) it is “Active”.
Still for that read-out and setting: as for `Nc1nc2c(c(=O)[nH]1)C(c1cccc(Br)c1)CC(=O)N2` (centres undefined), the entry is “Active”; as for `CCc1cccc(C2CC(=O)Nc3nc(N)[nH]c(=O)c32)c1` (centres undefined), “Active”.
For `CCOc1ccc(C2CC(=O)Nc3nc(N)[nH]c(=O)c32)cc1Br` (centres undefined), in [1], the outcome was Active.
Same read-out and setting: the entry for `COc1cccc(C2CC(=O)Nc3nc(N)[nH]c(=O)c32)c1` (centres undefined) is “Active”; for `CCOc1ccc(C2CC(=O)Nc3nc(N)[nH]c(=O)c32)cc1OCC` (centres undefined) it is “Active”; for `CCOc1ccc(C2CC(=O)Nc3nc(N)[nH]c(=O)c32)cc1OC` (centres undefined) it is “Active”.
For the molecule `Nc1nc2c(c(=O)[nH]1)C(c1ccc(F)c(F)c1)CC(=O)N2` (centres undefined), the result in series [1] was Active.
`CCCOc1cccc(C2CC(=O)Nc3nc(N)[nH]c(=O)c32)c1` (centres undefined): the outcome in series [1] was Active.
The same measure, in the same setting: as for `CCOc1ccc(C2CC(=O)Nc3nc(N)[nH]c(=O)c32)cc1C` (centres undefined), the entry is “Active”; as for `Nc1nc2c(c(=O)[nH]1)C(c1cccc(Cl)c1)CC(=O)N2` (centres undefined), “Active”.
On the same count and under the same terms, the entry for `CCCc1cccc(C2CC(=O)Nc3nc(N)[nH]c(=O)c32)c1` (centres undefined) is “Active”.
Take `CCOc1cccc(C2CC(=O)Nc3nc(N)[nH]c(=O)c32)c1` (centres undefined): the inhibition entry in the series on Mus musculus [2] is “Dde”. In addition, the half-life is 1.32 h in [3] and 2.29 h in series [12]. Besides, the result (with Mus musculus [4]; in series [1]) was Active. Further, the remaining at 10 min, 0.5 µM in series [5] amounted to 92%; in [9], 93%. The time to peak (Tmax) in series [6] and in [7] was 0.25 h throughout. Further, the Cmax stood at 29.3 µM in series [8] and 1.93 µM in [17]. Also, the Papp A→B at 2 h, 25 µM in series [10] was determined as 0.3 ×10⁻⁶ cm/s. In addition, the remaining at 1 h, 0.5 µM in [11] was found to be 84%; in [14] it was 93%. Besides, the results for the fraction unbound at 5 h in series [13] and in series [16] were 0.345 and 0.474, respectively. In [15], the solubility at 100 µM was determined as 27.9 µM (≈ 8.38 µg/mL).
Take `C=CCOc1ccc(C2CC(=O)Nc3nc(N)[nH]c(=O)c32)cc1OC` (centres undefined): the result (in the series on Mus musculus [18]; in the series on Mus musculus [20]; with Mus musculus [4]; in series [1]; in the series with Mus musculus [21]) was Active. For the same molecule, the 50% inhibitory concentration (IC50) in series [19] amounted to 1480 pM. In [19], the Activity result is “Dde”. Moreover, in the series on Mus musculus [2], the inhibition result is “Dde”. Further, the half-life is 1.72 h in series [3] and 2.19 h in [12]. Besides, the remaining at 10 min, 0.5 µM is 96% in series [5] and 93% in [9]. Moreover, the results for the Tmax in [6] and in series [7] were 0.67 h and 0.5 h, respectively. For the same molecule, the Cmax is 14.3 µM in series [8] and 0.79 µM in [17]. Besides, in series [10], the Papp A→B at 2 h, 25 µM stood at 0.3 ×10⁻⁶ cm/s. In addition, the remaining at 1 h, 0.5 µM in series [11] turned out to be 94%; in series [14], 91%. Also, the fraction unbound at 5 h in series [13] is 0.304; in series [16], 0.505. Moreover, in series [15], the concentration in solution (solubility at 100 µM) came to 92.2 µM (≈ 31.6 µg/mL).
As to `Nc1nc2c(c(=O)[nH]1)C(c1cccc(OC(F)(F)F)c1)CC(=O)N2` (centres undefined), the result (in the series with Mus musculus [18]; with Mus musculus [20]; in the series with Mus musculus [4]; in series [1]; in the series on Mus musculus [22]; with Mus musculus [21]) was Active. The IC50 in series [19] was determined as 110 pM. Also, in [19], the Activity entry is “Dde”. Further, the inhibition entry with Mus musculus [2] is “Dde”. The half-life in series [3] was 2.75 h; in [12], 2.4 h. The remaining at 10 min, 0.5 µM in [5] is 91%; in [9] it was 95%. The Tmax in series [6] worked out at 1 h; in series [7], 0.83 h. Also, the Cmax was found to be 40.6 µM in series [8] and 20.8 µM in series [17]. The Papp A→B at 2 h, 25 µM in series [10] turned out to be 1.6 ×10⁻⁶ cm/s. The remaining at 1 h, 0.5 µM is 93% in series [11] and 92% in [14]. In addition, the fraction unbound at 5 h was 0.11 in series [13] and 0.298 in series [16]. The solubility at 100 µM in series [15] is 93.3 µM (≈ 31.7 µg/mL).
Consider `CCOc1ccc(C2CC(=O)Nc3nc(N)[nH]c(=O)c32)cc1Cl` (centres undefined), for which the outcome in series [1] was Active.

Usually half-life stands for how long it takes for the measured level to halve. One may read the Tmax as the time from dosing to the highest level. The Cmax is the peak of the concentration-time curve. A word on the solubility: it is the dissolved amount per volume that the medium holds. Lower therefore signals little dissolved substance. For orientation: IC50 means the concentration that inhibits the measured activity by half.
